Measurements from patent publication US20140357713A1, “ANTIMICROBIAL COMPOUNDS AND METHODS OF USE” (NexMed Holdings, Inc., priority 2012, published 2014).
Where a name gives a salt, the structure may show the parent alone. Read-outs that look alike come from different tables or passages of the source.

What was measured:
Assay in all cases: MIC assay with different strains, Example 35
Format in all cases: cell-based
[1] = tested on: Streptococcus pneumonia (ATCC 6303)
Experimental: (§1) The minimum inhibitory concentration (MIC) is used to determine the lowest concentration of a test product claiming antimicrobial effects that will inhibit growth of a microorganism. Each microbial suspension was adjusted approximately 10^7 to 10^8 colony forming units (CFU) per mL and labeled as the stock suspension. The stock suspension was further diluted to 1:200 in Mueller Hinton broth to obtain a test sample having a concentration of […]. The test sample was then tested for MIC as described in M202.R02. After incubation, each tube was examined for turbidity, which indicated growth or no growth. For the tubes where the product rendered the media turbid, an aliquot of the media was streaked onto agar plates to confirm growth or lack of growth.

[2] = tested on: Micrococcus luteus (ATCC 4698)
Experimental: as §1

[3] = tested on: Enterobacter aerogenes (ATCC 13048)
Experimental: as §1

[4] = tested on: Burkholderia cepacia (ATCC 25416)
Experimental: as §1

[5] = tested on: Corynebacterium jeikeium (ATCC 43734)
Experimental: as §1

[6] = tested on: Candida albicans (ATCC 10231)
Experimental: as §1

[7] = tested on: Staphylococcus saprophyticus (ATCC 15305)
Experimental: as §1

[8] = tested on: Enterococcus faecalis (ATCC 51299)
Experimental: as §1

[9] = tested on: Staphylococcus aureus (ATCC 6538)
Experimental: as §1

[10] = tested on: Proteus mirabilis (ATCC 7002)
Experimental: as §1

[11] = tested on: Enterobacter cloacae (ATCC 13047)
Experimental: as §1

[12] = tested on: Streptococcus pyogenes (ATCC 19615)
Experimental: as §1

[13] = tested on: Enterococcus faecium (ATCC 19434)
Experimental: as §1

CCCCCCCCCCCCOC(=O)C(C)N(C)C (stereo not drawn) [Nex-05, Dodecyl 2-(dimethylamino)propanoate hydrochloride]
0.156%: MIC ([1]; Example 35)
Growth: Growth/no growth ([1]; Sample Concentration 0.039%) | Growth/no growth ([1]; Sample Concentration 0.078%) | Growth/no growth ([2]; Sample Concentration 0.039%) | Growth/no growth ([2]; Sample Concentration 0.078%) | Growth/no growth ([2]; Sample Concentration 0.156%) | Growth/no growth ([3]; Sample Concentration 0.039%) | Growth/no growth ([3]; Sample Concentration 0.078%) | Growth/no growth ([3]; Sample Concentration 0.156%) | Growth/no growth ([3]; Sample Concentration 0.313%) | Growth/no growth ([3]; Sample Concentration 0.625%) | Growth/no growth ([4]; Sample Concentration 0.039%) | Growth/no growth ([4]; Sample Concentration 0.078%) | Growth/no growth ([4]; Sample Concentration 0.156%) | Growth/no growth ([4]; Sample Concentration 0.313%) | Growth/no growth ([4]; Sample Concentration 0.625%) | Growth/no growth ([4]; Sample Concentration 1.25%) | Growth/no growth ([5]; Sample Concentration 0.039%) | Growth/no growth ([5]; Sample Concentration 0.078%) | Growth/no growth ([5]; Sample Concentration 0.156%) | Growth/no growth ([5]; Sample Concentration 0.313%) | Growth/no growth ([6]; Sample Concentration 0.039%) | Growth/no growth ([6]; Sample Concentration 0.078%) | Growth/no growth ([6]; Sample Concentration 0.156%) | Growth/no growth ([7]; Sample Concentration 0.039%) | Growth/no growth ([7]; Sample Concentration 0.078%) | Growth/no growth ([7]; Sample Concentration 0.156%) | Growth/no growth ([7]; Sample Concentration 0.313%) | Growth/no growth ([8]; Sample Concentration 0.039%) | Growth/no growth ([8]; Sample Concentration 0.078%) | Growth/no growth ([8]; Sample Concentration 0.156%) | Growth/no growth ([9]; Sample Concentration 0.039%) | Growth/no growth ([9]; Sample Concentration 0.078%) | Growth/no growth ([9]; Sample Concentration 0.156%) | Growth/no growth ([9]; Sample Concentration 0.313%) | Growth/no growth ([9]; Sample Concentration 0.625%) | Growth/no growth ([9]; Sample Concentration 1.25%) | Growth/no growth ([10]; Sample Concentration 0.039%) | Growth/no growth ([10]; Sample Concentration 0.078%) | Growth/no growth ([10]; Sample Concentration 0.156%) | Growth/no growth ([10]; Sample Concentration 0.313%) | Growth/no growth ([10]; Sample Concentration 0.625%) | Growth/no growth ([11]; Sample Concentration 0.039%) | Growth/no growth ([11]; Sample Concentration 0.078%) | Growth/no growth ([11]; Sample Concentration 0.156%) | Growth/no growth ([11]; Sample Concentration 0.313%) | Growth/no growth ([12]; Sample Concentration 0.039%) | Growth/no growth ([12]; Sample Concentration 0.078%) | Growth/no growth ([12]; Sample Concentration 0.156%)
2.5%: MIC ([4]; Example 35) | MIC ([9]; Example 35)
1.25%: MIC ([3]; Example 35) | MIC ([10]; Example 35)
0.625%: MIC ([5]; Example 35) | MIC ([7]; Example 35) | MIC ([11]; Example 35)
0.313%: MIC ([2]; Example 35) | MIC ([6]; Example 35) | MIC ([8]; Example 35) | MIC ([12]; Example 35)

CCCCCCCCCCCCOC(=O)C(C)NC.Cl (stereo not drawn) [Nex-59, Dodecyl 2-(methylamino)propanoate hydrochloride]
0.32%: MIC ([1]; Example 35) | MIC ([10]; Example 35)
0.02%: MIC ([2]; Example 35) | MIC ([7]; Example 35)
200 µg/mL: MIC ([2]; Micrococcus luteus, ATCC4698, Table 19 summary, read-out: MIC) | MIC ([7]; Staphylococcus saprophyticus, ATCC15305, Table 19 summary, read-out: MIC)
≦0.01%: MIC ([5]; Example 35) | MIC ([12]; Example 35)
1600 µg/mL: MIC ([3]; Klebsiella aerogenes, ATCC13048, Table 19 summary, read-out: MIC) | MIC ([11]; Enterobacter cloacae, ATCC13047, Table 19 summary, read-out: MIC)
0.16%: MIC ([3]; Example 35) | MIC ([11]; Example 35)
100 µg/mL: MIC ([12]; Streptococcus pyogenes, ATCC19615, Table 19 summary, read-out: MIC)
Growth: Growth/no growth ([1]; Sample Concentration 0.01%) | Growth/no growth ([1]; Sample Concentration 0.02%) | Growth/no growth ([1]; Sample Concentration 0.04%) | Growth/no growth ([1]; Sample Concentration 0.08%) | Growth/no growth ([1]; Sample Concentration 0.16%) | Growth/no growth ([2]; Sample Concentration 0.01%) | Growth/no growth ([3]; Sample Concentration 0.01%) | Growth/no growth ([3]; Sample Concentration 0.02%) | Growth/no growth ([3]; Sample Concentration 0.04%) | Growth/no growth ([3]; Sample Concentration 0.08%) | Growth/no growth ([4]; Sample Concentration 0.01%) | Growth/no growth ([4]; Sample Concentration 0.02%) | Growth/no growth ([4]; Sample Concentration 0.04%) | Growth/no growth ([4]; Sample Concentration 0.08%) | Growth/no growth ([4]; Sample Concentration 0.16%) | Growth/no growth ([4]; Sample Concentration 0.32%) | Growth/no growth ([4]; Sample Concentration 0.63%) | Growth/no growth ([4]; Sample Concentration 1.25%) | Growth/no growth ([6]; Sample Concentration 0.01%) | Growth/no growth ([6]; Sample Concentration 0.02%) | Growth/no growth ([7]; Sample Concentration 0.01%) | Growth/no growth ([8]; Sample Concentration 0.01%) | Growth/no growth ([8]; Sample Concentration 0.02%) | Growth/no growth ([9]; Sample Concentration 0.01%) | Growth/no growth ([9]; Sample Concentration 0.02%) | Growth/no growth ([10]; Sample Concentration 0.01%) | Growth/no growth ([10]; Sample Concentration 0.02%) | Growth/no growth ([10]; Sample Concentration 0.04%) | Growth/no growth ([10]; Sample Concentration 0.08%) | Growth/no growth ([10]; Sample Concentration 0.16%) | Growth/no growth ([13]; Sample Concentration 0.01%) | Growth/no growth ([13]; Sample Concentration 0.02%) | Growth/no growth ([11]; Sample Concentration 0.01%) | Growth/no growth ([11]; Sample Concentration 0.02%) | Growth/no growth ([11]; Sample Concentration 0.04%) | Growth/no growth ([11]; Sample Concentration 0.08%)
25 mg/mL: MIC ([4]; Burkholderia cepacia, ATCC25416, Table 19 summary, read-out: MIC)
≥ 100 µg/mL: MIC ([5]; Corynebacterium jeikeium, ATCC43734, Table 19 summary, read-out: MIC)
2.5%: MIC ([4]; Example 35)
0.04%: MIC ([6]; Example 35) | MIC ([8]; Example 35) | MIC ([9]; Example 35) | MIC ([13]; Example 35)
No: Growth/no growth ([2]; Sample Concentration 0.02%) | Growth/no growth ([2]; Sample Concentration 0.04%) | Growth/no growth ([2]; Sample Concentration 0.08%) | Growth/no growth ([2]; Sample Concentration 0.16%) | Growth/no growth ([2]; Sample Concentration 0.32%) | Growth/no growth ([2]; Sample Concentration 0.63%) | Growth/no growth ([2]; Sample Concentration 1.25%) | Growth/no growth ([2]; Sample Concentration 2.5%) | Growth/no growth ([3]; Sample Concentration 0.16%) | Growth/no growth ([3]; Sample Concentration 0.32%) | Growth/no growth ([3]; Sample Concentration 0.63%) | Growth/no growth ([3]; Sample Concentration 1.25%) | Growth/no growth ([3]; Sample Concentration 2.5%) | Growth/no growth ([5]; Sample Concentration 0.01%) | Growth/no growth ([5]; Sample Concentration 0.02%) | Growth/no growth ([5]; Sample Concentration 0.04%) | Growth/no growth ([5]; Sample Concentration 0.08%) | Growth/no growth ([5]; Sample Concentration 0.16%) | Growth/no growth ([5]; Sample Concentration 0.32%) | Growth/no growth ([5]; Sample Concentration 0.63%) | Growth/no growth ([5]; Sample Concentration 1.25%) | Growth/no growth ([5]; Sample Concentration 2.5%) | Growth/no growth ([7]; Sample Concentration 0.02%) | Growth/no growth ([7]; Sample Concentration 0.04%) | Growth/no growth ([7]; Sample Concentration 0.08%) | Growth/no growth ([7]; Sample Concentration 0.16%) | Growth/no growth ([7]; Sample Concentration 0.32%) | Growth/no growth ([7]; Sample Concentration 0.63%) | Growth/no growth ([7]; Sample Concentration 1.25%) | Growth/no growth ([7]; Sample Concentration 2.5%) | Growth/no growth ([8]; Sample Concentration 0.04%) | Growth/no growth ([8]; Sample Concentration 0.08%) | Growth/no growth ([8]; Sample Concentration 0.16%) | Growth/no growth ([8]; Sample Concentration 0.32%) | Growth/no growth ([8]; Sample Concentration 0.63%) | Growth/no growth ([8]; Sample Concentration 1.25%) | Growth/no growth ([8]; Sample Concentration 2.5%) | Growth/no growth ([12]; Sample Concentration 0.01%) | Growth/no growth ([12]; Sample Concentration 0.02%) | Growth/no growth ([12]; Sample Concentration 0.04%) | Growth/no growth ([12]; Sample Concentration 0.08%) | Growth/no growth ([12]; Sample Concentration 0.16%) | Growth/no growth ([12]; Sample Concentration 0.32%) | Growth/no growth ([12]; Sample Concentration 0.63%) | Growth/no growth ([12]; Sample Concentration 1.25%) | Growth/no growth ([12]; Sample Concentration 2.5%)
400 µg/mL: MIC ([6]; Candida albicans, ATCC10231, Table 19 summary, read-out: MIC) | MIC ([8]; Enterococcus faecalis, ATCC51299, Table 19 summary, read-out: MIC) | MIC ([9]; Staphylococcus aureus, ATCC6538, Table 19 summary, read-out: MIC) | MIC ([13]; Enterococcus faecium, ATCC19434, Table 19 summary, read-out: MIC)
3200 µg/mL: MIC ([1]; Streptococcus pneumoniae, ATCC6303, Table 19 summary, read-out: MIC) | MIC ([10]; Proteus mirabilis, ATCC7002, Table 19 summary, read-out: MIC)
